Data published in US9592225B2, “Crystalline N-[5-(aminosulfonyl)-4-methyl-1,3-thiazol-2-yl]-N-methyl-2-[4-(2-pyridinyl)phenyl]acetamide mono mesylate monohydrate having a specific particle size distribution range and a specific surface area range for use in pharmaceutical formulations” (AICURIS ANTI-INFECTIVE CURES GMBH, priority 2011, dated 2017).

Legend:
Thermostability = assay type: physicochemical; conditions: compared to the mesylate salt
Description: A clear advantage of the N-[5-(aminosulfonyl)-4-methyl-1,3-thiazol-2-yl]-N-methyl-2-[4-(2-pyridinyl)phenyl]acetamide mono mesylate monohydrate, wherein the PSD, PSR and SSA are as defined herein, is its proven long-term stability. Therefore, the inventive N-[5-(aminosulfonyl)-4-methyl-1,3-thiazol-2-yl]-N-methyl-2-[4-(2-pyridinyl)-phenyl]acetamide mono mesylate monohydrate, which is characterized by the PSD, PSR and SSA as disclosed herein, is better suited for the preparation of long-term stable tablets compared to the free base form of N-[5-(aminosulfonyl)-4-methyl-1,3-thiazol-2-yl]-N-methyl-2-[4-(2-pyridinyl)phenyl]acetamide.

[1] = Multiple-dose escalation and steady-state pharmacokinetics in healthy volunteers; assay type: in vivo, human; conditions: for AUGτ: day 21 steady state, n=12
Description: For the three doses of the mono mesylate monohydrate salt of N-[5-(aminosulfonyl)-4-methyl-1,3-thiazol-2-yl]-N-methyl-2-[4-(2-pyridinyl)phenyl]acetamide in formulation according to example 1, Table 2, wherein the particle size distribution is preferably defined by d(0.1) from 2 to 100 μm, d(0.5) from 30 to 210 μm and d(0.9) from 70 to 400 μm with a specific surface area of the particles less than 1.0 m^2/g, and more preferably defined by d(0.1) from 10 to 75 μm, d(0.5) from 100 to 175 μm, d(0.9) from 200 to 350 μm with a specific surface area of the particles less than 0.3 m^2/g, investigated (5, 25, and 100 mg as free base equivalent; once per day oral administration, […]), the individual concentration-time curves of the free base N-[5-(aminosulfonyl)-4-methyl-1,3-thiazol-2-yl]Nmethyl-2-[4-(2-pyridinyl)phenyl]acetamide at day 1 (after the first administration) were very similar in their general shape and slope to those profiles obtained in the single dose escalation trial (see Example 6).
At steady state, there was a low inter-individual variability of minimal or “trough” concentrations with CVs (coefficient of variations) between 16.7 and 21.7% (day 21). For all doses, the individual and mean concentration-time curves of the free base of N-[5-(aminosulfonyl)-4-methyl-1,3-thiazol-2-yl]-N-methyl-2-[4-(2-pyridinyl)phenyl]acet-amide at day 21 were very similar in their shape and slope to those profiles obtained at day 1.
Table 10: Steady state pharmacokinetic parameters of the free base N-[5-(aminosulfonyl)-4-methyl-1,3-thiazol-2-yl]-N-methyl-2-[4-(2-pyridinyl)phenyl]acetamide at day 21 after daily administrations of 5, 25, or 100 mg as free base equivalent of the mono mesylate monohydrate salt of N-[5-(aminosulfonyl)-4-methyl-1,3-thiazol-2-yl]-N-methyl-2-[4-(2-pyridinyl)phenyl]acetamide in formulation according to example 2, Table 2, wherein the particle size distribution is preferably defined by d(0.1) from 2 to 100 μm, d(0.5) from 30 to 210 μm and d(0.9) from 70 to 400 μm with a specific surface area of the particles less than 1.0 m^2/g, and more preferably defined by d(0.1) from 10 to 75 μm, d(0.5) from 100 to 175 μm, d(0.9) from 200 to 350 μm with a specific surface area of the particles less than 0.3 m^2/g, to healthy volunteers (n=12 per dose).

[2] = Single-dose escalation and pharmacokinetics in human volunteers; assay type: in vivo
Description: Exposure of the free base form of N-[5-(aminosulfonyl)-4-methyl-1,3-thiazol-2-yl]-N-methyl-2-[4-(2-pyridinyl)-phenyl]acetamide to the human body may be measured by high pressure liquid chromatography (HPLC) by looking at different pharmacokinetic parameters in suitable bodily fluids such as for instance blood plasma and urine, the most common parameters being the Cmax, the so-called area under the curve (AUC), and the terminal half-life (t1/2Z). Hereto, the person skilled in the art understands that said parameters are determined by using adequate bioanalytical methods with adequate sensitivity, specificity, ruggedness, stability and repeatability, as for instance a qualified liquid chromatography triple quad mass spectrometry based method coupled with a suitable extraction method for the separation of the analyte from, e.g. the blood plasma.
Therefore, pharmacokinetic studies in human subjects were undertaken following both single and multiple dose administrations of the crystalline mono mesylate monohydrate salt of N-[5-(aminosulfonyl)-4-methyl-1,3-thiazol-2-yl]-N-methyl-2-[4-(2-pyridinyl)phenyl]-acetamide, wherein the particle size distribution is preferably defined by d(0.1) from 2 to 100 μm, d(0.5) from 30 to 210 μm and d(0.9) from 70 to 400 μm with a specific surface area of the particles less than 1.0 m^2/g, and more preferably defined by d(0.1) from 10 to 75 μm, d(0.5) from 100 to 175 μm, d(0.9) from 200 to 350 μm with a specific surface area of the particles less than 0.3 m^2/g.
Single oral doses of the crystalline mono mesylate monohydrate salt of N-[5-(aminosulfonyl)4methyl1,3thiazol-2-yl]-N-methyl-2-[4-(2-pyridinyl)phenyl]acetamide using the formulations according to example 2, Table 2, were administered to six volunteers per dose step. The overall shape of the plasma concentrations vs. time profiles were similar across all doses (see FIG. 9 and FIG. 12). […]
AUC0-∞: Area under the analyte vs. time concentration from time of administration up to infinity, calculated as
[formula] wherein A0-last is defined as the area under the analyte vs. time concentration up to time of the last qualifiable concentration, calculated by linear up/log down summation and Clast is defined as last quantifiable observed analyte concentration. λz is the apparent terminal elimination rate constant, determined by linear regression of terminal points of In-linear analyte concentration-time curve.
Cmax is the maximal observed analyte concentration and tmax is the time to reach Cmax; t1/2z is defined as the apparent terminal elimination half-life, calculated as
MRT: Mean Residence Time; calculated AUMC divided by AUC, wherein AUMC is the area under the first moment of the concentration-time curve from zero up to ∞ with extrapolation of the terminal phase and AUC is the area under the concentration-time curve from zero up to ∞ with extrapolation of the terminal phase. […]

[3] = Safety and tolerability in phase I trials; assay type: in vivo, human; conditions: healthy male volunteers, single and multiple dose, up to the highest dose tested
Experimental: The results were compared with the effective concentration of the free base of N-[5-(aminosulfonyl)-4-methyl-1,3-thiazol-2-yl]-N-methyl-2-[4-(2-pyridinyl)phenyl]acetamide in cell culture and correlated to exposures reached in healthy male volunteers in single and multiple dose phase I trials (see FIGS. 9-13).
(§1) In healthy male volunteers these plasma concentrations were covered by a single dose of 40 mg as free base equivalent to the crystalline mono mesylate monohydrate salt of N-[5-(aminosulfonyl)-4-methyl-1,3-thiazol-2-yl]-N-methyl-2-[4-(2-pyridinyl)phenyl]acetamide (see FIG. 10) and at steady state by daily doses of 25 mg as free base equivalent (see FIG. 11) for 21 days.

HSV = assay: Murine HSV skin infection model; assay type: in vivo; conditions: oral doses of 5 mg/kg or higher once daily for four days; data not shown
Experimental: To assess the pharmacokinetic/pharmacodynamic profile the effective dose of the free base of N-[5-(aminosulfonyl)-4-methyl-1,3-thiazol-2-yl]-N-methyl-2-[4-(2-pyridinyl)phenyl]-acetamide was validated in a murine HSV skin infection model and associated plasma concentrations were determined (data not shown).
as §1

Row | thermostability (Thermostability) | AUGτ ([1]; human, 5 mg free base equivalent once daily oral) | AUGτ ([1]; human, 25 mg free base equivalent once daily oral) | AUGτ ([1]; human, 100 mg free base equivalent once daily oral) | relation of steady-state exposure (Ctrough, AUCτ, Cmax,ss, Cav) to dose ([1]; human, 5, 25, 100 mg once daily) | relation of AUC0-24 h and Cmax at day 1 to dose ([1]; human, 5, 25, 100 mg, after the first administration) | accumulation ratio R for both AUC and Cmax ([1]; human, all doses applied (5, 25, 100 mg once daily)) | relation of maximum plasma concentrations to dose ([2]; single doses from 5 mg to 400 mg as free base equivalent) | relation of AUC0-∞ to dose ([2]; single doses from 5 mg to 480 mg as free base equivalent) | mean maximum blood plasma concentration (mean Cmax) of the free base ([2]; single oral dose 480 mg as free base equivalent) | AUC0-∞ ([2]; single oral dose 600 mg free base equivalent, mean, n=6) | SMILES | gender-related difference in exposure ([2]; single dose of 80 mg as free base equivalent, after normalization to body weight) | safety and tolerability [3] | suppression of murine HSV skin infection (HSV)
1 | up to 170 °C | 5094 ng·h/mL | 23430 ng·h/mL | 108800 ng·h/mL | dose-proportional increase | dose-proportional increases | ~5 | linearly related to doses | dose-proportional increase | 6921 ± 2190 ng/mL | 320800 ng·h/mL | CS(=O)(=O)O.Cc1nc(N(C)C(=O)Cc2ccc(-c3ccccn3)cc2)sc1S(N)(=O)=O [mono mesylate monohydrate, N-[5-(aminosulfonyl)-4-methyl-1,3-thiazol-2-yl]-N-methyl-2-[4-(2-pyridinyl)-phenyl]acetamide mono methanesulfonic acid monohydrate] | No clinical relevant gender-related difference | – | –
2 | – | – | – | – | – | – | – | – | – | – | – | Cc1nc(N(C)C(=O)Cc2ccc(-c3ccccn3)cc2)sc1S(N)(=O)=O [free base, N-[5-(aminosulfonyl)-4-methyl-1,3-thiazol-2-yl]-N-methyl-2-[4-(2-pyridinyl)phenyl]acetamide] | – | safe and well tolerated | completely suppressed the murine infection
